Results from ChEMBL document CHEMBL1149507, “Synthesis, structure, and bioactivity of N'-substituted benzylidene-3,4,5-trimethoxybenzohydrazide and 3-acetyl-2-substituted phenyl-5-(3,4,5-trimethoxyphenyl)-2,3-dihydro-1,3,4-oxadiazole derivatives” (Bioorg Med Chem Lett, 2006).

How the values were obtained:
PC-3 [1] = assay: Antiproliferative activity against human PC3 cell line at 1 uM by MTT assay; format: functional
Bcap37 [2] = assay: Antiproliferative activity against human Bcap37 cell line at 1 uM by MTT assay; format: functional
PC-3 [3] = assay: Antiproliferative activity against human PC3 cell line at 5 uM by MTT assay; format: functional
BGC-823 [4] = assay: Antiproliferative activity against human BGC823 cell line at 1 uM by MTT assay; format: functional
BGC-823 [5] = assay: Antiproliferative activity against human BGC823 cell line at 5 uM by MTT assay; format: functional
Bcap37 [6] = assay: Antiproliferative activity against human Bcap37 cell line at 5 uM by MTT assay; format: functional
PC-3 [7] = assay: Antiproliferative activity against human PC3 cell line by MTT assay; format: functional, cell-based

IC50 (PC-3 [7]) [µM] | Compound | inhibition at 1 µM (PC-3 [1]) [%] | inhibition at 1 µM (Bcap37 [2]) [%] | inhibition at 5 µM (PC-3 [3]) [%] | inhibition at 1 µM (BGC-823 [4]) [%] | inhibition at 5 µM (BGC-823 [5]) [%] | inhibition at 5 µM (Bcap37 [6]) [%]
 | COc1cc(C(=O)N/N=C/c2ccc(C(F)(F)F)cc2)cc(OC)c1OC | 59.9 | 61.8 | 61.6 | 47.4 | 56.3 | 65.6
 | COc1ccc(OC)c(/C=N/NC(=O)c2cc(OC)c(OC)c(OC)c2)c1 | 30.9 | 0 | 51.7 | 0.1 | 10.1 | 0
 | COc1cc(C(=O)N/N=C/c2ccc(Cl)c(Cl)c2)cc(OC)c1OC | 13.5 | 0.1 | 31.6 | 29.6 | 32.7 | 0.6
1.7 | COc1cc(C2=NN(C(C)=O)C(c3cc(Cl)cc(Cl)c3)O2)cc(OC)c1OC (stereo unspecified) | 52.7 | -1.1 | 93.9 | 0 | 6.6 | 1.3
 | COc1cc(C(=O)N/N=C/c2ccc(F)c(F)c2)cc(OC)c1OC | 35.1 | 58.5 | 43.7 | 33.1 | 51.9 | 68.2
 | COc1cc(C2=NN(C(C)=O)C(c3cc(OC)c(OC)c(OC)c3)O2)cc(OC)c1OC (stereo unspecified) | -1.8 | 5.1 | 0.1 | -1.8 | -1.4 | 5.4
 | COc1cc(C(=O)N/N=C/c2ccc(F)cc2)cc(OC)c1OC | 76 | 50.2 | 82.8 | 50.9 | 61.1 | 55.5
 | COc1cc(C(=O)N/N=C/c2cccc(F)c2)cc(OC)c1OC | 53.5 | 38 | 64.1 | 13.6 | 44.8 | 49
 | COc1ccc(/C=N/NC(=O)c2cc(OC)c(OC)c(OC)c2)c(OC)c1 | 10 | -3 | 22.2 | -6.9 | 3.6 | -0.1
 | COc1cc(C2=NN(C(C)=O)C(c3cccc(C(F)(F)F)c3)O2)cc(OC)c1OC (stereo unspecified) | 30.1 | 10.1 | 43.6 | 27.9 | 41.1 | 35.5
 | COc1cc(C(=O)N/N=C/c2cc(Cl)cc(Cl)c2)cc(OC)c1OC | 22.1 | -5.4 | 46.3 | -7.5 | 9.2 | 3.6
 | COc1cc(C2=NN(C(C)=O)C(c3ccc(Cl)c([N+](=O)[O-])c3)O2)cc(OC)c1OC (stereo unspecified) | 43.3 | -2.9 | 61.4 | -2.3 | 0 | 1
 | COc1ccc(OC)c(C2OC(c3cc(OC)c(OC)c(OC)c3)=NN2C(C)=O)c1 (stereo unspecified) | 37.2 | -3.8 | 43.2 | 0.4 | 18.2 | 2.3
 | COc1cc(C2=NN(C(C)=O)C(c3ccc(F)c(F)c3)O2)cc(OC)c1OC (stereo unspecified) | 35.5 | -1.3 | 46.9 | 18.3 | 21.6 | 2.3
 | COc1cc(C2=NN(C(C)=O)C(c3c(Cl)cccc3Cl)O2)cc(OC)c1OC (stereo unspecified) | 5.1 | 9.3 | -2.2 | -1.4 | 15.9 | 45.8
